Measurements taken from patent US11780843B2, “Compounds active towards nuclear receptors” (NUEVOLUTION A/S, priority 2020, dated 2023).

Assays:
[1] = molecular target: T1, RORγ ligand-binding domain (Homo sapiens, UniProt P51449); experiment: RORγ Reporter Assay (Gal4); assay type: cell-based; conditions: HEK293 cells, luciferase reporter, 24 h incubation, absolute IC50; read-out: IC50
T1 construct: Gal4 (galactose-responsive transcription factor); expressed in transfected cells; host or cells: HEK293, transient co-transfection
T1 sequence (P51449 269-508 limits assumed): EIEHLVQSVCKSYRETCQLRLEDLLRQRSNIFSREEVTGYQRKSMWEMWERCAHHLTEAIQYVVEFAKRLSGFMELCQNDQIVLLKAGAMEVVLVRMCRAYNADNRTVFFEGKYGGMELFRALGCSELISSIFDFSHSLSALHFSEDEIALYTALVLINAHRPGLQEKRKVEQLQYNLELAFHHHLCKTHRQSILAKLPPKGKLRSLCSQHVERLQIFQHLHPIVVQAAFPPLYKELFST
Experimental: The HEK293 cell line is co-transfected transiently with two plasmids, one with the RORγ ligand-binding domain fused to galactose-responsive transcription factor (Ga14), and the other with the luciferase reporter gene and Gal binding sites (UAS). This construction allows to determine the RORT activity in a cellular system through the measurement of luminescence.
A suspension of RORγ reporter cells was dispensed into plates and cultured 2 h at 37° C. and 5% CO2. Media formulation consisted in DMEM/F-12 medium (Gibco) supplemented with 10% heat inactivated FBS (Sigma-Aldrich), non-essential aminoacids (Sigma-Aldrich), 2 mM Glutamax (Gibco) and 100 U/mL penicillin (Sigma-Aldrich). Dose-response curves with compounds were prepared in 100% DMSO and further diluted 100-fold in culture medium. Compound solutions were added to the plate containing cells (final DMSO concentration of 0.1%) and incubated for 24 h at 37° C. and 5% CO2. Luciferase detection reagent was added to each well, and relative light units (RLUs) were quantified from each assay well using a plate reading luminometer.
Values of average RLU±S.D. were computed for all treatment sets, followed by the calculations of percent-reduction of RORT activity in response to respective test compound. The following formula was used: activity=100*[1−[[…]] where the theoretical minimum reduction (0% reduction). […] These calculations were performed in excel-fit software using X-204 model curve.

[2] = test system: IL-17A secretion in activated PBMCs; experiment: IL-17A secretion in activated PBMCs; assay type: cell-based; conditions: human PBMCs stimulated with CD3/CD28 Dynabeads for 48 h, absolute IC50
Excerpt: Heparin-treated whole blood from healthy human volunteers was supplied from Hospital de Sant Pau (Barcelona) under the approval of the local ethical review board for human studies (Hospital de Sant Pau, Barcelona, Spain). Human peripheral blood mononuclear cells (PBMCs) were isolated from healthy human volunteers by density gradient centrifugation using the Ficoll-Paque (GE Healthcare). PBMCs were suspended in cell culture medium which consisted on RPMI 1640 medium (Sigma-Aldrich) containing 10% heat inactivated fetal bovine serum (Sigma-Aldrich), 2 mM L-Glutamine (Gibco), 20 mM Hepes (Gibco) and 100 U/mL penicillin (Sigma-Aldrich). Cells were seeded in 384-well plate (DiscoverX), at 40,000 cells per well and cultured 2 h at 37° C. and 5% CO2.
Dose-response curves with compounds were prepared using a 5-fold serial dilution (10 concentrations) in 100% DMSO and further diluted 100-fold in culture medium. Compound solutions (5 μL) were added to the plate containing cells (final DMSO concentration of 0.1%) and incubated for 30 min. Then, cells were stimulated with CD3/CD28 Dynabeads (ThermoFisher, at a bead-to-cell ratio of 1:1) for 48 h at 37° C. and 5% CO2.
IL-17A levels in supernatant were determined by immunoassay using hIL17A QBeads (Intellicyt) and by fluorescence analysis in iQue flow cytometer following the manufacturer's instructions. Inhibition of IL-17A secretion was calculated using the following formula: inhibition=100*[1−[(x−mean basal condition)/(mean top condition—mean basal condition)]]. Activated DMSO-treated cells were used as top condition and activated GNE09461 (10 μM)-treated cells as basal condition.

In the case of `NC(=O)CN1CCC(O)(Cn2ccc3c(N(Cc4ccc(C(F)(F)F)cc4)C4CC4)ncnc32)CC1` [Example 3P6-2, 2-(4-((4-(cyclopropyl(4-(trifluoromethyl)benzyl)amino)-7H-pyrrolo-[2,3-d]pyrimidin-7-yl)methyl)-4-hydroxypiperidin-1-yl)acetamide], the IC50 [1] is reported as 4.2 nM and the IC50 ([2]; Homo sapiens, PBMC, 48 h) is reported as 2.2 nM.

Work on `NC(=O)CN1CC[C@@H](Cn2ccc3c(N(Cc4ccc(C(F)(F)F)cn4)C4CC4)ncnc32)[C@H](O)C1` (racemic) [Example P6-23, rac-2-((3R,4R)-4-((4-(cyclopropyl((5-(trifluoromethyl)pyridin-2-yl)methyl)amino)-7H-pyrrolo[2,3-d]pyrimidin-7-yl)methyl)-3-hydroxypiperidin-1-yl)acetamide] yielded an IC50 [1] of 5.3 nM and an IC50 ([2]; Homo sapiens, PBMC, 48 h) of 12 nM.

`NC(=O)CN1CC[C@@H](Cn2cc(F)c3c(N(Cc4ccc(C(F)(F)F)cc4)C4CC4)ncnc32)[C@H](O)C1` (single isomer, unassigned) [Example P6-14-2] showed an IC50 [1] of 1 nM and an IC50 [2] of 1.7 nM.

`NC(=O)CN1CC[C@](O)(Cn2ccc3c(N(Cc4ccc(-n5cccn5)cc4)C4CC4)ncnc32)[C@@H](O)C1` (single isomer, unassigned) [Example R5-2-1] gave an IC50 [1] of 4.9 nM and an IC50 [2] of 29 nM.

Work on `NC(=O)CN1CC[C@@H](Cn2cnc3c(N(Cc4ccc(C(F)(F)F)cc4)C4CC4)ncnc32)[C@H](O)C1` (single isomer, unassigned) [Example P6-26-2] yielded an IC50 [1] of 5 nM and an IC50 ([2]; Homo sapiens, PBMC, 48 h) of 65 nM.

With `CCN(Cc1ccc(C(F)(F)F)cc1)c1ncnc2c1ccn2C[C@@H]1CCN(CC(N)=O)C[C@H]1O` (single isomer, unassigned) [Example P6-24-2] the IC50 [1] was 9.1 nM and the IC50 [2] was 170 nM.

In the case of `CC(C)N(Cc1ccc(C(F)(F)F)cc1)c1ncnc2c1ccn2C[C@@H]1CCN(CC(N)=O)C[C@H]1O` (single isomer, unassigned) [Example P6-25-1], the IC50 [1] is reported as 12 nM and the IC50 ([2]; Homo sapiens, PBMC, 48 h) is reported as 110 nM.

For `CCN(Cc1ccc(C(F)(F)F)cn1)c1ncnc2c1ccn2C[C@@H]1CCN(CC(N)=O)C[C@H]1O` (relative stereo) [P6-27″, rel-2-((3R,4R)-4-((4-(ethyl((5-(trifluoromethyl)pyridin-2-yl)methyl)amino)-7H-pyrrolo[2,3-d]pyrimidin-7-yl)methyl)-3-hydroxypiperidin-1-yl)acetamide], the IC50 [1] was 12 nM and the IC50 ([2]; Homo sapiens, PBMC, 48 h) was 70 nM.

In the case of `NC(=O)CN1CCC(O)(Cn2cc(F)c3c(N(Cc4ccc(C(F)(F)F)cc4)C4CC4)ncnc32)CC1` [Example 3P6-1, 2-(4-((4-(Cyclopropyl(4-(trifluoromethyl)benzyl)amino)-5-fluoro-7H-pyrrolo[2,3-d]pyrimidin-7-yl)methyl)-4-hydroxypiperidin-1-yl)acetamide], the IC50 [1] is reported as 6.9 nM and the IC50 ([2]; Homo sapiens, PBMC, 48 h) is reported as 21 nM.

In the case of `NC(=O)CN1CC[C@@H](Cn2ccc3c(N(Cc4ccc(C(F)(F)F)nc4)C4CC4)ncnc32)[C@H](O)C1` (racemic) [Example P6-16, rac-2-((3R,4R)-4-((4-(cyclopropyl((6-(trifluoromethyl)pyridin-3-yl)methyl)amino)-7H-pyrrolo[2,3-d]pyrimidin-7-yl)methyl)-3-hydroxypiperidin-1-yl)acetamide], the IC50 [1] is reported as 5 nM and the IC50 ([2]; Homo sapiens, PBMC, 48 h) is reported as 17 nM.

Work on `NC(=O)CN1CC[C@@H](Cn2ccc3c(N(Cc4ccc(C(F)(F)F)cc4)C4CC4)ncnc32)[C@H](O)C1` (racemic) [Example P6-13, rac-2-((3R,4R)-4-((4-(cyclopropyl(4-(trifluoromethyl)benzyl)amino)-7H-pyrrolo[2,3-d]pyrimidin-7-yl)methyl)-3-hydroxypiperidin-1-yl)acetamide] yielded an IC50 [1] of 0.9 nM and an IC50 ([2]; Homo sapiens, PBMC, 48 h) of 1.5 nM.

`NC(=O)CN1CCC(Cn2cnc3c(N(Cc4ccc(C(F)(F)F)cc4)C4CC4)ncnc32)CC1` [Example P6-06, 2-(4-((6-(cyclopropyl(4-(trifluoromethyl)benzyl)amino)-9H-purin-9-yl)methyl)piperidin-1-yl)acetamide] gave an IC50 [1] of 85 nM and an IC50 ([2]; Homo sapiens, PBMC, 48 h) of 48 nM.

With `CCN(Cc1ccc(C(F)(F)F)cn1)c1ncnc2c1c(F)cn2C[C@@H]1CCN(CC(N)=O)C[C@H]1O` (relative stereo) [P6-28″, rel-2-((3R,4R)-4-((4-(ethyl((5-(trifluoromethyl)pyridin-2-yl)methyl)amino)-5-fluoro-7H-pyrrolo[2,3-d]pyrimidin-7-yl)methyl)-3-hydroxypiperidin-1-yl)acetamide] the IC50 [1] was 8.6 nM and the IC50 ([2]; Homo sapiens, PBMC, 48 h) was 53 nM.

In the case of `Cn1cc(-c2ccc(CN(c3ncnc4c3ccn4C[C@@]3(O)CCN(CC(N)=O)C[C@@H]3O)C3CC3)c(F)c2)cn1` (relative stereo) [R5-3″, rel-2-((3R,4R)-4-((4-(cyclopropyl(2-fluoro-4-(1-methyl-1H-pyrazol-4-yl)benzyl)amino)-7H-pyrrolo[2,3-d]pyrimidin-7-yl)methyl)-3,4-dihydroxypiperidin-1-yl)acetamide], the IC50 [1] is reported as 4 nM and the IC50 ([2]; Homo sapiens, PBMC, 48 h) is reported as 11 nM.

`N#CC1(Cn2cc(F)c3c(N(Cc4ccc(C(F)(F)F)cc4)C4CC4)ncnc32)CCN(CC(N)=O)CC1` [Example P6-11, 2-(4-cyano-4-((4-(cyclopropyl(4-(trifluoromethyl)benzyl)amino)-5-fluoro-7H-pyrrolo[2,3-d]pyrimidin-7-yl)methyl)piperidin-1-yl)acetamide] was tested, and the IC50 [1] was 16 nM and the IC50 ([2]; Homo sapiens, PBMC, 48 h) was 23 nM.

Compound `CC(C)N(Cc1ccc(C(F)(F)F)cc1)c1ncnc2c1ccn2C[C@@H]1CCN(CC(N)=O)C[C@H]1O` (single isomer, unassigned) [Example P6-25-2] has an IC50 [1] of 30 nM and an IC50 [2] of 130 nM.

`NC(=O)CN1CC[C@@H](Cn2cc(F)c3c(N(Cc4ccc(C(F)(F)F)cc4)C4CC4)ncnc32)[C@H](O)C1` (single isomer, unassigned) [Example P6-14-1] was tested, and the IC50 [1] was 3.8 nM and the IC50 [2] was 18 nM.

With `CN(Cc1ccc(C(F)(F)F)cc1)c1ncnc2c1c(F)cn2C[C@@H]1CCN(CC(N)=O)C[C@H]1O` (racemic) [Example P6-12, rac-2-((3R,4R)-4-((5-fluoro-4-(methyl(4-(trifluoromethyl)benzyl)amino)-7H-pyrrolo[2,3-d]pyrimidin-7-yl)methyl)-3-hydroxypiperidin-1-yl)acetamide] the IC50 [1] was 5.2 nM and the IC50 ([2]; Homo sapiens, PBMC, 48 h) was 30 nM.

`NC(=O)CN1CC[C@](O)(Cn2ccc3c(N(Cc4ccc(C(F)(F)F)cc4)C4CC4)ncnc32)[C@@H](O)C1` (single isomer, unassigned) [Example L5-1-1-2] showed an IC50 [1] of 2 nM and an IC50 [2] of 2.3 nM.

In the case of `NC(=O)CN1CC[C@@H](Cn2cc(F)c3c(N(Cc4ccc(C(F)(F)F)cn4)C4CC4)ncnc32)[C@H](O)C1` (racemic) [Example P6-18, rac-2-((3R,4R)-4-((4-(cyclopropyl((5-(trifluoromethyl)pyridin-2-yl)methyl)amino)-5-fluoro-7H-pyrrolo[2,3-d]pyrimidin-7-yl)methyl)-3-hydroxypiperidin-1-yl)acetamide], the IC50 [1] is reported as 4.6 nM and the IC50 ([2]; Homo sapiens, PBMC, 48 h) is reported as 14 nM.

Compound `NC(=O)C(CO)N1CC[C@@H](Cn2ccc3c(N(Cc4ccc(C(F)(F)F)cc4)C4CC4)ncnc32)[C@H](O)C1` (mixture of isomers) [Example P6-37, rac-2-((3R,4R)-4-((4-(Cyclopropyl(4-(trifluoromethyl)benzyl)amino)-7H-pyrrolo[2,3-d]pyrimidin-7-yl)methyl)-3-hydroxypiperidin-1-yl)-3-hydroxypropanamide] has an IC50 [1] of 2 nM and an IC50 ([2]; Homo sapiens, PBMC, 48 h) of 7 nM.

With `CC(C)N(Cc1ccc(C(F)(F)F)cc1)c1ncnc2c1ccn2C[C@@H]1CCN(CC(N)=O)C[C@H]1O` (racemic) [Example P6-25, rac-2-((3R,4R)-3-hydroxy-4-((4-(isopropyl(4-(trifluoromethyl)benzyl)amino)-7H-pyrrolo[2,3-d]pyrimidin-7-yl)methyl)piperidin-1-yl)acetamide] the IC50 [1] was 15 nM and the IC50 ([2]; Homo sapiens, PBMC, 48 h) was 35 nM.
